{
  "source": "ChEMBL document CHEMBL1136401",
  "about": "(Bioorg Med Chem Lett, 2003)",
  "key": {"MT4 [1]": {"test_system": "MT4", "test": "Inhibition of the spread of HIV infection wild type(WT) in MT-4 human T-lymphoid cells", "format": "functional", "conditions": "read-out: CIC95"}, "MT4 [2]": {"test_system": "MT4", "test": "Inhibition of the spread of HIV infection (K-60C) in MT-4 human T-lymphoid cells", "format": "functional", "conditions": "read-out: CIC95"}, "MT4 [3]": {"test_system": "MT4", "test": "Inhibition of the spread of HIV infection (V-18C) in MT-4 human T-lymphoid cells", "format": "functional", "conditions": "read-out: CIC95"}, "[4]": {"molecular_target": "T1, Human immunodeficiency virus type 1 protease (Human immunodeficiency virus 1, UniProt Q72874)", "test": "Inhibition of HIV protease of HIV K-60C mutant strain"}, "[5]": {"molecular_target": "T1, Human immunodeficiency virus type 1 protease", "test": "Inhibition of wild type HIV protease"}, "[6]": {"molecular_target": "T1, Human immunodeficiency virus type 1 protease", "test": "Inhibition of HIV protease of HIV V-18C mutant strain"}},
  "data": [
    {"smiles": "Cc1noc(C)c1CNC(=O)[C@H]1N(C(=O)[C@@H](O)C[C@@H](Cc2ccccc2)C(=O)N[C@H]2c3ccccc3OC[C@H]2O)CSC1(C)C", "values": [
      {"measurement": "IC95", "setting": "MT4 [1]", "result": 156, "unit": "nM"},
      {"measurement": "IC95", "setting": "MT4 [2]", "result": 250, "unit": "nM"},
      {"measurement": "IC95", "setting": "MT4 [3]", "result": 62, "unit": "nM"}
    ]},
    {"smiles": "Cc1cccc(C)c1CNC(=O)[C@H]1N(C(=O)[C@@H](O)C[C@@H](Cc2ccccc2)C(=O)N[C@H]2c3ccccc3OC[C@H]2O)CSC1(C)C", "values": [
      {"measurement": "IC95", "setting": "MT4 [1]", "result": 47, "unit": "nM"},
      {"measurement": "IC95", "setting": "MT4 [2]", "result": 500, "unit": "nM"},
      {"measurement": "IC95", "setting": "MT4 [3]", "result": 62, "unit": "nM"}
    ]},
    {"smiles": "Cc1cccc(Cl)c1CNC(=O)[C@H]1N(C(=O)[C@@H](O)C[C@@H](Cc2ccccc2)C(=O)N[C@H]2c3ccccc3OC[C@H]2O)CSC1(C)C", "values": [
      {"measurement": "IC95", "setting": "MT4 [1]", "result": 31, "unit": "nM"},
      {"measurement": "IC95", "setting": "MT4 [2]", "result": 46, "unit": "nM"},
      {"measurement": "IC95", "setting": "MT4 [3]", "result": 23, "unit": "nM"}
    ]},
    {"smiles": "Cc1ccnc(C)c1CNC(=O)[C@H]1N(C(=O)[C@@H](O)C[C@@H](Cc2ccccc2)C(=O)N[C@H]2c3ccccc3OC[C@H]2O)CSC1(C)C", "values": [
      {"measurement": "IC95", "setting": "MT4 [1]", "result": 187, "unit": "nM"},
      {"measurement": "IC95", "setting": "MT4 [2]", "result": 250, "unit": "nM"},
      {"measurement": "IC95", "setting": "MT4 [3]", "result": 125, "unit": "nM"}
    ]},
    {"smiles": "Cc1cccc(C)c1CNC(=O)[C@H]1N(C(=O)[C@H](O)C[C@@H](Cc2ccccc2)C(=O)N[C@H]2c3ccccc3OC[C@H]2O)CSC1(C)C", "values": [
      {"measurement": "IC95", "setting": "MT4 [1]", "result": 15, "unit": "nM"},
      {"measurement": "IC95", "setting": "MT4 [2]", "result": 70, "unit": "nM"},
      {"measurement": "IC95", "setting": "MT4 [3]", "result": 15, "unit": "nM"}
    ]},
    {"smiles": "Cc1nsc(C)c1CNC(=O)[C@H]1N(C(=O)[C@@H](O)C[C@@H](Cc2ccccc2)C(=O)N[C@H]2c3ccccc3OC[C@H]2O)CSC1(C)C", "values": [
      {"measurement": "IC95", "setting": "MT4 [1]", "result": 16, "unit": "nM"},
      {"measurement": "IC95", "setting": "MT4 [2]", "result": 250, "unit": "nM"},
      {"measurement": "IC95", "setting": "MT4 [3]", "result": 31, "unit": "nM"}
    ]},
    {"smiles": "CC(C)(C)NC(=O)[C@@H]1CN(Cc2cccnc2)CCN1C[C@@H](O)C[C@@H](Cc1ccccc1)C(=O)N[C@H]1c2ccccc2C[C@H]1O", "values": [
      {"measurement": "IC95", "setting": "MT4 [1]", "result": 45, "unit": "nM"},
      {"measurement": "IC95", "setting": "MT4 [2]", "result": 1000, "unit": "nM"},
      {"measurement": "IC95", "setting": "MT4 [3]", "result": 890, "unit": "nM"}
    ]},
    {"smiles": "Cc1cccc(C)c1CNC(=O)[C@H]1N(C(=O)[C@@H](O)C[C@@H](Cc2ccccc2)C(=O)N[C@H]2c3ccccc3C[C@H]2O)CSC1(C)C", "values": [
      {"measurement": "IC95", "setting": "MT4 [1]", "result": 31, "unit": "nM"},
      {"measurement": "IC50", "setting": "[4]", "result": 0.062, "unit": "nM"},
      {"measurement": "IC50", "setting": "[5]", "result": 0.04, "unit": "nM"},
      {"measurement": "IC95", "setting": "MT4 [2]", "result": 125, "unit": "nM"},
      {"measurement": "IC95", "setting": "MT4 [3]", "result": 31, "unit": "nM"},
      {"measurement": "IC50", "setting": "[6]", "result": 0.062, "unit": "nM"}
    ]},
    {"smiles": "Cc1ccccc1CNC(=O)[C@H]1N(C(=O)[C@@H](O)C[C@@H](Cc2ccccc2)C(=O)N[C@H]2c3ccccc3OC[C@H]2O)CSC1(C)C", "values": [
      {"measurement": "IC95", "setting": "MT4 [1]", "result": 19, "unit": "nM"},
      {"measurement": "IC95", "setting": "MT4 [2]", "result": 125, "unit": "nM"},
      {"measurement": "IC95", "setting": "MT4 [3]", "result": 41, "unit": "nM"}
    ]},
    {"smiles": "CC1(C)SCN(C(=O)[C@@H](O)C[C@@H](Cc2ccccc2)C(=O)N[C@H]2c3ccccc3OC[C@H]2O)[C@@H]1C(=O)NCc1c(F)cccc1F", "values": [
      {"measurement": "IC95", "setting": "MT4 [1]", "result": 23, "unit": "nM"},
      {"measurement": "IC95", "setting": "MT4 [2]", "result": 250, "unit": "nM"},
      {"measurement": "IC95", "setting": "MT4 [3]", "result": 62, "unit": "nM"}
    ]},
    {"smiles": "CC1(C)SCN(C(=O)[C@@H](O)C[C@@H](Cc2ccccc2)C(=O)N[C@H]2c3ccccc3OC[C@H]2O)[C@@H]1C(=O)NCc1c(Cl)cccc1Cl", "values": [
      {"measurement": "IC95", "setting": "MT4 [1]", "result": "< 8", "unit": "nM"},
      {"measurement": "IC95", "setting": "MT4 [2]", "result": 250, "unit": "nM"},
      {"measurement": "IC95", "setting": "MT4 [3]", "result": 16, "unit": "nM"}
    ]},
    {"smiles": "Cc1ccccc1CNC(=O)[C@H]1N(C[C@@H](O)C[C@@H](Cc2ccccc2)C(=O)N[C@H]2c3ccccc3OC[C@H]2O)CSC1(C)C", "values": [
      {"measurement": "IC95", "setting": "MT4 [1]", "result": 250, "unit": "nM"},
      {"measurement": "IC50", "setting": "[4]", "result": 7.9, "unit": "nM"},
      {"measurement": "IC50", "setting": "[5]", "result": 0.52, "unit": "nM"},
      {"measurement": "IC95", "setting": "MT4 [2]", "result": "> 1000", "unit": "nM"},
      {"measurement": "IC95", "setting": "MT4 [3]", "result": 1000, "unit": "nM"},
      {"measurement": "IC50", "setting": "[6]", "result": 8.8, "unit": "nM"}
    ]}
  ]
}
